Data taken from US5312919A, “Photooxidation products and derivatives thereof of merocyanine-540, their preparation and uses” (priority 1992, dated 1994).

Key:
[1] = test system: L1210 mouse leukemia cells; test: Combined effect on L1210 mouse leukemia cells (MTT assay); conditions: MC = 12.5 μg/ml; MD = 25 μg/ml; MZ = 25 μg/ml; overnight
Method: The biological activities of the photooxidation products of MC 540 were determined. Preactivated MC 540 is abbreviated as pMC 540. Assays of antitumor activities of the products were carried out according to published standard methods.
Mouse leukemia L1210 cells (1 × 10^6 cells/ml) were treated wit
different combinations of the indicated compounds (isolated from
preactivated merocyanine 540). After overnight incubation the cell kill
was determined by MTT assay.

MT-4 cells = test: Effect on viability of MT-4 cells; assay type: cell-based; conditions: experimental conditions of Table 8
Method: Cell free human immunodeficiency virus (HIV-1) was either left untreated or treated with indicated doses of Merocil or Merodantoin for one hour at 37° C. and added to MT-4 target cells. After 4 hour incubation at 37° C., the cells were washed three times and further incubated in drug free fresh growth medium (complete RPMI-1640) at 37° C. for 4 days. On day four, 50% of the culture supernatant was replaced with fresh growth medium to prevent cell death due to possible nutrient depletion. The viability of the cell was determined on day 11 by MTT assay. […] The viability of the MT-4 cells was not affected by Merocil or Merodantoin under the experimental conditions described above.

[2] = test system: H.S. Sultan (multiple myeloma); test: Inhibition of cell proliferation, H.S. Sultan (MTT assay); assay type: cell-based; conditions: 24 hr.
Method: Preactivated MC 540 is abbreviated as pMC 540. […] 52: 831-38 (1990); and T. Mosmann, J. Immulog. Methods 65: 55-63 (1983).
Each cell type (1×10^6 cells/ml; in triplicate) was treated with indicated concentrations of merocil or merodantoin. […] The cytotoxicity in vehicle only (cremophor EL) controls was not detectable at highest dose tested.

CCCCN1C(=O)C(=O)N(CCCC)C1=S [Merodantoin, N,N'-Dibutyl-2-thio-4,5-imidazolindion]
% Cell Kill [1]: 64%
viability of the MT-4 cells (MT-4 cells): not affected
inhibition at 1.56 µg/mL ([2]; 1.56 μg/ml, read-out: % inhibition of cell proliferation): 18%
inhibition at 3.13 µg/mL ([2]; 3.13 μg/ml, read-out: % inhibition of cell proliferation): 34%
inhibition at 6.25 µg/mL ([2]; 6.25 μg/ml, read-out: % inhibition of cell proliferation): 54%
inhibition at 12.5 µg/mL ([2]; 12.5 μg/ml, read-out: % inhibition of cell proliferation): 77%
inhibition at 25 µg/mL ([2]; 25.0 μg/ml): 87%
